Data on four compounds can be found in US20250346600A1, “TRICYCLIC DERIVATIVES AND RELATED USES” (MOMA Therapeutics, Inc., priority 2023, published 2025).

For one assay, the system named is HCT116 cells. Put plainly: HCT116 (MSI) 7 day viability, CellTiter Glo. Conditions: Homo sapiens, HCT-116, 168 h, 7 days, read-out: HCT116 (MSI) Viability 7 Day Abs AC50. In kind it is cell-based. The essentials:
(§1)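 Luminescence read-out (CellTiter Glo) after 7-day compound exposure at 37 °C. Seeding density 50 cells/well for HCT116, 500 cells/well for HT29. Background from cell-free medium wells; IC50 by four-parameter logistic fit, geometric mean of at least 2 replicates.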

Assay [1] deals with T1, Full length WRN protein (aa 2-1432) (Homo sapiens (Human), UniProt Q14191). Nature of the assay: WRN ATPase ADP-Glo biochemical assay, Assay Format B (100 μM ATP). Conditions: 0.25 nM WRN, 100 nM C6.18 ssDNA, 60 min preincubation, read-out: ATPase ADPGlo AC50 (uM)- Assay Format B.
T1 sequence (Q14191 2-1432): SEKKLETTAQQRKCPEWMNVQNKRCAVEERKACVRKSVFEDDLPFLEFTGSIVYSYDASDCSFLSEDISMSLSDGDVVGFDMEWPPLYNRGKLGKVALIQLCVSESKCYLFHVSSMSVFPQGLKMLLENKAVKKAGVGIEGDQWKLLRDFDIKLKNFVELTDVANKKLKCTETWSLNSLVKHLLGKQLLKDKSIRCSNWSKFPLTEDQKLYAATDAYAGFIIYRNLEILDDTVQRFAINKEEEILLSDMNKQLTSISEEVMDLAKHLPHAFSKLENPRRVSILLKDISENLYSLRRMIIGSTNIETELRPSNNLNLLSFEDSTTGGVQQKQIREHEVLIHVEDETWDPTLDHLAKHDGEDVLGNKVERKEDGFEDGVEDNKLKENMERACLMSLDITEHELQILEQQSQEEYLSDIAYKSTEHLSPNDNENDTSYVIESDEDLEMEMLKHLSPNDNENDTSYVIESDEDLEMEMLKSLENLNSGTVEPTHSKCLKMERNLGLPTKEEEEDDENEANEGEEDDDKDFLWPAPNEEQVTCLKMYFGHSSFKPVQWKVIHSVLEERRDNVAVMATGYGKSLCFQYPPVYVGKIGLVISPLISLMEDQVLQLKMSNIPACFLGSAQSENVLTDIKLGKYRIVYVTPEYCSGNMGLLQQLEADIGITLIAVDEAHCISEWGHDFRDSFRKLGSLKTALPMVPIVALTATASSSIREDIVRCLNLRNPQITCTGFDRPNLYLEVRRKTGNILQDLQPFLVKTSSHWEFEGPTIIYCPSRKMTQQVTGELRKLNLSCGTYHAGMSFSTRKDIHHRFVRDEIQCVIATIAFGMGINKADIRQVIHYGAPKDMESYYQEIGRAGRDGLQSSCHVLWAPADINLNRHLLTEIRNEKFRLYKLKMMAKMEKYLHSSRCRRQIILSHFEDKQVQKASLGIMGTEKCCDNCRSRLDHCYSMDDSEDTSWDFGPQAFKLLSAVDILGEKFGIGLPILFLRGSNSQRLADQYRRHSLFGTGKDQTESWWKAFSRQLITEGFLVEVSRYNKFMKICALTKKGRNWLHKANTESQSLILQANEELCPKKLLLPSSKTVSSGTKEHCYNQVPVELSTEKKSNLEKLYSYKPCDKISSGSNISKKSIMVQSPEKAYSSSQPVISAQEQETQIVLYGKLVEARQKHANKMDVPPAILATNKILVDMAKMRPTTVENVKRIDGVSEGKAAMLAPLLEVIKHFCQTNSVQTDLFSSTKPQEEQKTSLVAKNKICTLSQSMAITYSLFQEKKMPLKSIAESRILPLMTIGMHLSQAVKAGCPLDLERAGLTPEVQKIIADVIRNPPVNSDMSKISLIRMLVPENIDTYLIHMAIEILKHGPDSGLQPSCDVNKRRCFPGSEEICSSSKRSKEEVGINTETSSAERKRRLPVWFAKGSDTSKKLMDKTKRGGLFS
The target in assay [2] is T1, Full length WRN protein (aa 2-1432). Nature of the assay: WRN ATPase ADP-Glo biochemical assay, Assay Format A (10 μM ATP). Conditions: 0.25 nM WRN, 100 nM C6.18 ssDNA, 30 min preincubation, read-out: ATPase ADPGlo AC50 (uM)- Assay Format A. The essentials:
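Sf9-expressed FLAG-AVI-TEV-tagged WRN (0.5 nM) preincubated 30 min with compound (11-point 3-fold dilution). Reaction started with 200 nM C6.18 39-mer ssDNA and 20 μM ATP (addition concentrations), run 30 min at room temperature. ADP measured by ADP-Glo luminescence; IC50 from four-parameter fit, geometric mean of ≥2 runs.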

In the next assay the test system is HT29 cells. Nature of the assay: HT29 (MSS) 7 day viability, CellTiter Glo. In kind it is cell-based. Conditions: Homo sapiens, HT-29, 168 h, 7 days, read-out: HT29 (MSS) Viability 7 Day CTGAbs AC50. The essentials: as §1

For the compound `C=CC(=O)N1CCc2nn(-c3ccc(C4CC4)cc3C(F)(F)F)c3c2C(C1)N(C(=O)c1cnc(C(F)(F)F)cc1N)CC3` (stereo not shown) [Compound 256, 1-(5-(4-amino-6-(trifluoromethyl)nicotinoyl)-2-(4-cyclopropyl-2-(trifluoromethyl)phenyl)-2,3,4,5,5a,6,8,9-octahydro-7H-1,2,5,7-tetraazabenzo[cd]azulen-7-yl)prop-2-en-1-one], the AC50 was 250 to 500 nM in the assay on HCT116 cells, greater than 0.055 µM in assay [1], 0.015 to 0.055 µM in assay [2] and greater than 3000 nM in the assay with HT29 cells.

Take `CS(=O)(=O)/C=C/CN1CCc2nn(-c3ccc(C4CC4)cc3O)c3c2C(C1)N(C(=O)c1cnc(C(F)(F)F)cc1N)CC3` (stereo not shown) [Compound 257, (4-amino-6-(trifluoromethyl)pyridin-3-yl)(2-(4-cyclopropyl-2-hydroxyphenyl)-7-(3-(methylsulfonyl)allyl)-3,4,6,7,8,9-hexahydro-2H-1,2,5,7-tetraazabenzo[cd]azulen-5(5aH)-yl)methanone]: the AC50 in the assay with HCT116 cells was greater than 1000 nM; in assay [1] it was greater than 0.055 µM; in assay [2], greater than 0.055 µM; in the assay with HT29 cells, greater than 3000 nM.

For `C=CC(=O)N1CCc2nn(-c3ccc(C4CC4)c(F)c3O)c3c2C(C1)N(C(=O)c1cnc(OC(F)(F)F)c(F)c1N)CC3` (stereo not shown) [Compound 258, 1-(5-(4-amino-5-fluoro-6-(trifluoromethoxy)nicotinoyl)-2-(4-cyclopropyl-3-fluoro-2-hydroxyphenyl)-2,3,4,5,5a,6,8,9-octahydro-7H-1,2,5,7-tetraazabenzo[cd]azulen-7-yl)prop-2-en-1-one], the AC50 in the assay with HCT116 cells is 1 to 100 nM; in assay [1] it was 0.015 to 0.055 µM; in assay [2], 0.005 to 0.015 µM; in the assay with HT29 cells, greater than 3000 nM.

With `C=CC(=O)N1CC(OCC2=CCOCC2)c2nn(-c3ccc(C4CCC4)cc3)c3c2C(C1)N(C(=O)c1cnc(C(F)(F)F)cc1N)CC3` (stereo not shown) [Compound 260, 1-(5-(4-amino-6-(trifluoromethyl)nicotinoyl)-2-(4-cyclobutylphenyl)-9-((3,6-dihydro-2H-pyran-4-yl)methoxy)-2,3,4,5,5a,6,8,9-octahydro-7H-1,2,5,7-tetraazabenzo[cd]azulen-7-yl)prop-2-en-1-one], the AC50 in the assay on HCT116 cells was 1 to 100 nM; in assay [1], 0.0015 to 0.005 µM; in assay [2] it was less than 0.0015 µM; in the assay on HT29 cells, greater than 3000 nM.
